Our source for the acetylation of histone values is US7204984B2, “Acetyllysine-recognizing monoclonal antibody and process for producing the same” (Japan Science and Technology Corporation, priority 2001, dated 2007).

For the assay, the system named is histone-deacetylase. Description: Histone acetylation in cells treated with CHAP31 (Western blotting). Type of assay: cell-based. The conditions noted are these: 1 μM, 24 hours, detected with Clone-1 antibody. The procedure: Five types of cells, B16/BL6, MOLT-4F, HeLa-S3, COS-1, and COS-7 were treated with, 1 μM of histone-deacetylase inhibitor, CHAP31, for 24 hours, and then cell lysates were prepared and developed on an electrophoresis, followed by detecting acetylated proteins using the above four antibodies as primary antibodies. In FIGS. 2, A, B, C, and D indicate the results of the detections using Clone-1, Clone-2, Clone-3, and Clone-4, respectively. The concentration of the primary antibodies used for the Western blotting were 107 ng/ml, 65.7 ng/ml, 258 ng/ml, and 158 ng/ml, respectively, and each of these concentration provide the same reactivity (A492=1) in ELISA where acetylated bovine serum albumin was immobilized. The total cell lysates were prepared from the cells (+) after subjecting each cell in the 1 μM CHAP31 treatment for 24 hours or the cells (−) without the treatment. In each lane, 20 μg of protein was loaded. Five types of cells being used were 1: B16/BL6, 2: MOLT-4F, 3: HeLa-S3, 4: COS-1, and 5: COS-7, respectively.
(A western blot detects proteins with antibodies after separation by electrophoresis.)

SMILES strings stand for the structures. Non-standard residues stand in square brackets, D forms with d. Residues, ends and D or L forms follow the SMILES beside them. *: point of attachment. Asu = N[C@@H](CCCCCC(=O)O)C(=O)O; NHOH = ON*

`CC[C@H](C)[C@@H]1NC(=O)[C@@H](Cc2ccc(OC)cc2)NC(=O)[C@H](CCCCCC(=O)NO)NC(=O)[C@H]2CCCN2C1=O` [CHAP31] (cyclo([Asu](NHOH)[dY](Me)I[dP])): the acetylation of histone entry is reported as “increased”.
